Activity calls are given as the source filed them. No cut-off for these calls is given here.
How the values were obtained:
Type in all cases: functional, cell-based
[1] = target: T1, Taste receptor type 2 member 5 (Homo sapiens) (UniProt Q9NYW4); assay: Agonist activity at recombinant human N-terminal rat ST3 receptor-fused TAS2R5 expressed in HEK293T cells co-expressing Galpha16gust44 assessed as increase in intracellular calcium level at 100 uM by FLIPR assay
T1 sequence (whole entry): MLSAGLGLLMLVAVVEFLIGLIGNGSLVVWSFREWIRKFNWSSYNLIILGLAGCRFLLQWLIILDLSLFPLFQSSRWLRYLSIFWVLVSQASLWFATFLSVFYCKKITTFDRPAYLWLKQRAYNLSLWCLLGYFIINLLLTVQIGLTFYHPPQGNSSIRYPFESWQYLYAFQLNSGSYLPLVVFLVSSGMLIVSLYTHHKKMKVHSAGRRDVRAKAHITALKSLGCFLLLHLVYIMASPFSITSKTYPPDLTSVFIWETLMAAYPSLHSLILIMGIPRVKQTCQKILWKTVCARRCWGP

[2] = target: T2, Taste receptor type 2 member 1 (Homo sapiens) (UniProt Q9NYW7); assay: Agonist activity at recombinant human N-terminal rat ST3 receptor-fused TAS2R1 expressed in HEK293T cells co-expressing Galpha16gust44 assessed as increase in intracellular calcium level at 100 uM by FLIPR assay
T2 sequence (whole entry): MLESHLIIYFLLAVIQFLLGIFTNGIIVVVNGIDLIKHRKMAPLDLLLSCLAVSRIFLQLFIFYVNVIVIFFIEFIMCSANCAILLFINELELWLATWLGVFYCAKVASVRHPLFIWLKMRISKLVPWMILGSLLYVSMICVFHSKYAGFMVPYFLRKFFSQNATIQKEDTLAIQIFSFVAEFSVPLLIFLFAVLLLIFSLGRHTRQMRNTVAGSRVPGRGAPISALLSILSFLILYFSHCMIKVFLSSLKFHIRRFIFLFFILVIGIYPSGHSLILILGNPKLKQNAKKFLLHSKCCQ

[3] = target: T3, Taste receptor type 2 member 4 (Homo sapiens) (UniProt Q9NYW5); assay: Agonist activity at recombinant human N-terminal rat ST3 receptor-fused TAS2R4 expressed in HEK293T cells co-expressing Galpha16gust44 assessed as increase in intracellular calcium level at 100 uM by FLIPR assay
T3 sequence (whole entry): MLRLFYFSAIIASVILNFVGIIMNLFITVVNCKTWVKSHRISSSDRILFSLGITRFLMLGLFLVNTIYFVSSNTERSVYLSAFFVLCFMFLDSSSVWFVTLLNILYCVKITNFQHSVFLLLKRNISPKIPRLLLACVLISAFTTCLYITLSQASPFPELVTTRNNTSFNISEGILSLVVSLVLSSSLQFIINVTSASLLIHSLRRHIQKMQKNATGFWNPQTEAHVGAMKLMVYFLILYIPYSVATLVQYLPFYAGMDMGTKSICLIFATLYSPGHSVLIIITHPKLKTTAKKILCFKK

[4] = target: T4, Taste receptor type 2 member 38 (Homo sapiens) (UniProt P59533); assay: Agonist activity at recombinant human N-terminal rat ST3 receptor-fused TAS2R38 expressed in HEK293T cells co-expressing Galpha16gust44 assessed as increase in intracellular calcium level at 100 uM by FLIPR assay
T4 sequence (whole entry): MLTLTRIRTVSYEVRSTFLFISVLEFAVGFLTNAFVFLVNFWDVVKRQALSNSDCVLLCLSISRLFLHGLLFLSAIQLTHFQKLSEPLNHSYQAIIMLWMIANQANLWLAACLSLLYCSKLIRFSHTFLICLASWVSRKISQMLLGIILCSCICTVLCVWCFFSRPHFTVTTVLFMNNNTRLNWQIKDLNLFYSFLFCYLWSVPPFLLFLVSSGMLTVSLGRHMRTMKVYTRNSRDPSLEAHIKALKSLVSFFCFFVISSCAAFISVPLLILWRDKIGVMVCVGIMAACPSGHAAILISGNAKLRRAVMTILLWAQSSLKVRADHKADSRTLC

[5] = target: T5, Taste receptor type 2 member 7 (Homo sapiens) (UniProt Q9NYW3); assay: Agonist activity at recombinant human N-terminal rat ST3 receptor-fused TAS2R7 expressed in HEK293T cells co-expressing Galpha16gust44 assessed as increase in intracellular calcium level at 100 uM by FLIPR assay
T5 sequence (whole entry): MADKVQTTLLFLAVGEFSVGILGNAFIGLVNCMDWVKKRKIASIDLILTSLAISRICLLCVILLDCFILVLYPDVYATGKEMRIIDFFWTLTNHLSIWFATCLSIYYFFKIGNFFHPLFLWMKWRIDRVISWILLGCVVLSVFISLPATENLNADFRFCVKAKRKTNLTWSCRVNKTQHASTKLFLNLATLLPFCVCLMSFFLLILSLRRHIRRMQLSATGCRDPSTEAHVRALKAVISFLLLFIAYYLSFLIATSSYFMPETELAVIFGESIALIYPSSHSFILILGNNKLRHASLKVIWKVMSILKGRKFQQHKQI

[6] = target: Taste receptor type 2 member 19 (Homo sapiens) (UniProt P59542); assay: Agonist activity at recombinant human N-terminal rat ST3 receptor-fused TAS2R48 expressed in HEK293T cells co-expressing Galpha16gust44 assessed as increase in intracellular calcium level at 100 uM by FLIPR assay
[7] = target: T5, Taste receptor type 2 member 7 (Homo sapiens); assay: Potentiation of quinine sulfate-induced agonist activity at recombinant human N-terminal rat ST3 receptor-fused TAS2R7 expressed in HEK293T cells co-expressing Galpha16gust44 assessed as increase in intracellular calcium level at 100 uM by FLIPR assay
[8] = target: T6, Taste receptor type 2 member 9 (Homo sapiens) (UniProt Q9NYW1); assay: Agonist activity at recombinant human N-terminal rat ST3 receptor-fused TAS2R9 expressed in HEK293T cells co-expressing Galpha16gust44 assessed as increase in intracellular calcium level at 100 uM by FLIPR assay
T6 sequence (whole entry): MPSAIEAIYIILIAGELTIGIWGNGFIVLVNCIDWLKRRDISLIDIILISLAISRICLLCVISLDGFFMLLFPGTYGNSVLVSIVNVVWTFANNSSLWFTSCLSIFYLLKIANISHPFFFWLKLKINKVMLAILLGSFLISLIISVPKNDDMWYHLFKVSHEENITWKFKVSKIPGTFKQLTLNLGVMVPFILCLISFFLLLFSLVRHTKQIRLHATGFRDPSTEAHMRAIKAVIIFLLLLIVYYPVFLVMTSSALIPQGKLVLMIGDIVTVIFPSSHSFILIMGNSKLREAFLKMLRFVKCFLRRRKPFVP

[9] = target: T1, Taste receptor type 2 member 5 (Homo sapiens); assay: Potentiation of denatonium saccharide-induced agonist activity at recombinant human N-terminal rat ST3 receptor-fused TAS2R5 expressed in HEK293T cells co-expressing Galpha16gust44 assessed as increase in intracellular calcium level at 100 uM by FLIPR assay
[10] = target: T5, Taste receptor type 2 member 7 (Homo sapiens); assay: Antagonist activity at recombinant human N-terminal rat ST3 receptor-fused TAS2R7 expressed in HEK293T cells co-expressing Galpha16gust44 assessed as inhibition of quinine sulfate-induced increase in intracellular calcium level at 100 uM by FLIPR assay

Chain of Taste receptor type 2 member 19 (Homo sapiens) (P59542 whole entry, the tested form may be a part): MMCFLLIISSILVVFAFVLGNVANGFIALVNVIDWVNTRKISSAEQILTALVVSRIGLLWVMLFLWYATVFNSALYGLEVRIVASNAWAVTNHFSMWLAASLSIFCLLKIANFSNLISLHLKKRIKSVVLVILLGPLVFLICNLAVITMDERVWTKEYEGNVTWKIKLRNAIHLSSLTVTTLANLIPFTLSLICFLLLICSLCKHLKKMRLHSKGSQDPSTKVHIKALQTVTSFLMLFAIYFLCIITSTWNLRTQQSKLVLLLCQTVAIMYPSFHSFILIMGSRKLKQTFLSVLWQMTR

Row | Structure (SMILES) | Activity [1] | Activity [2] | Activity [3] | Activity [4] | Activity [5] | Activity [6] | Activity [7] | Activity [8] | Activity [9] | inhibition [10]
1 | C/C1=C\C[C@H](O)/C(C)=C/[C@H]2OC(=O)[C@@H](C)[C@@H]2CC1 | inactive | Active | Active | Active | Active | inactive | Active | inactive | Active | –
2 | C/C1=C\C[C@H](O)[C@@H](C)C[C@H]2OC(=O)[C@@H](C)[C@@H]2CC1 | – | – | – | – | – | – | – | – | – | inactive
